Patent US7419780B2, “Methods and assays for screening protein targets” (The Trustees of Columbia University in the City of New York, priority 2000, dated 2008)

Legend:
Assay type in all cases: cell-based, S. cerevisiae
Conditions in all cases: 1 uM small molecule, difference to activity without small molecule, average of two trials
[1] = target: T1, LexA (GSG)2eDHFR / B42 rGR2 (UniProt P06536+P0ABQ4, C656G/F620S); experiment: β-galactosidase activity assay, strain V498Y
T1 construct: rat Glucocorticoid Receptor (aa 524-795) with point mutations; expressed in transfected cells; host or cells: S. cerevisiae FY250
T1 sequence (P0ABQ4 1-159): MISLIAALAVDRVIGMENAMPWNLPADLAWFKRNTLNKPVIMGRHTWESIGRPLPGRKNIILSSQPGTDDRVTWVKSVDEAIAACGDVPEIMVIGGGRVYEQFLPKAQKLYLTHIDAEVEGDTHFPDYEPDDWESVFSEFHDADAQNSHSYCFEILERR
T1 sequence (P06536 524-795 F620S/C656G limits assumed): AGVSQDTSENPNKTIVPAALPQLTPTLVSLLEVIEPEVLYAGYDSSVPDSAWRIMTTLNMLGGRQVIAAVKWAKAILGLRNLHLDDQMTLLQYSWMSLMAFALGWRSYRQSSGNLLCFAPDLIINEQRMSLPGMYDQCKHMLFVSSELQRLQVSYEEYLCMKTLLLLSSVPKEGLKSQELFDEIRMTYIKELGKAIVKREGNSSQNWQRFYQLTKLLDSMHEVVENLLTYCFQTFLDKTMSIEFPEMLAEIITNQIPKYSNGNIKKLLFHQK
From the text: (§1) Table III explains the components of each strain. Each strain was constructed from the parent yeast strain FY250 and also contains the pMW106 plasmid, which has the LacZ reporter gene that is turned on only in when the LexA DNA binding domain and the B42 activation are brought in tot he vicinity of each other. We use several different strains because we use DHFR from two different species, mDHFR is from murine, while eDHFR is from E. coli. We are asl oable to switch the small moleculebinding domains. For example, the strain containing LexA-eDHFR with B42-rGH2 is a different strain and behaves differently from the strain containing LexA-rGR2 with B42-eDHFR. We also put in short 6 amino acid linkers between the two domains of our protein chimeras and thus these are different strain as well.
(§2) The results in Table IV are averages of two separate trials. Each strain was examined with small molecules and without small molecules. The absolute activity is given as the β-galactisidase activity […]. The average β-galactosidse activity for a strain without small molecule (i.e. the negative control) was about 100 β-galactosidase units.

[2] = target: T2, LexA mDHFR / B42 (GSG)rGR2 (UniProt P00375+P06536, C656G/F620S); experiment: β-galactosidase activity assay, strain V497Y
T2 construct: rat Glucocorticoid Receptor (aa 524-795) with point mutations; expressed in transfected cells; host or cells: S. cerevisiae FY250
T2 sequence (P00375 1-187): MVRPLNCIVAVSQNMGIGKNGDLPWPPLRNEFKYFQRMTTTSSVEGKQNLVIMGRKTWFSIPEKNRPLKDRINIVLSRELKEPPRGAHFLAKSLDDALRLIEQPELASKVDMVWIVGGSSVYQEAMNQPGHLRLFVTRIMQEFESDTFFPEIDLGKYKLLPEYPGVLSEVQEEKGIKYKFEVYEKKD
T2 sequence (P06536 524-795 F620S/C656G limits assumed): T1 sequence (P06536 524-795 F620S/C656G limits assumed)
From the text: as §1, §2

[3] = target: T3, LexA (GSG)2eDHFR / B42 gly6rGR2 (UniProt P06536+P0ABQ4, C656G/F620S); experiment: β-galactosidase activity assay, strain V499Y
T3 construct: rat Glucocorticoid Receptor (aa 524-795) with point mutations; expressed in transfected cells; host or cells: S. cerevisiae FY250
T3 sequence (P0ABQ4 1-159): T1 sequence (P0ABQ4 1-159)
T3 sequence (P06536 524-795 F620S/C656G limits assumed): T1 sequence (P06536 524-795 F620S/C656G limits assumed)
From the text: as §1, §2

[4] = target: T4, LexA (GSG)2rGR2 / B42 (GSG)2mDHFR (UniProt P00375+P06536, C656G/F620S); experiment: β-galactosidase activity assay, strain V512Y
T4 construct: rat Glucocorticoid Receptor (aa 524-795) with point mutations; expressed in transfected cells; host or cells: S. cerevisiae FY250
T4 sequence (P06536 524-795 F620S/C656G limits assumed): T1 sequence (P06536 524-795 F620S/C656G limits assumed)
T4 sequence (P00375 1-187): T2 sequence (P00375 1-187)
From the text: as §1, §2

LexA mDHFR / B42 rGR2 = target: T5, LexA mDHFR / B42 rGR2 (UniProt P00375+P06536, C656G/F620S); experiment: β-galactosidase activity assay, strain V495Y
T5 construct: rat Glucocorticoid Receptor (aa 524-795) with point mutations; expressed in transfected cells; host or cells: S. cerevisiae FY250
T5 sequence (P00375 1-187): T2 sequence (P00375 1-187)
T5 sequence (P06536 524-795 F620S/C656G limits assumed): T1 sequence (P06536 524-795 F620S/C656G limits assumed)
From the text: as §1, §2

[5] = target: T6, LexA mDHFR / B42 gly6rGR2 (UniProt P00375+P06536, C656G/F620S); experiment: β-galactosidase activity assay, strain V496Y
T6 construct: rat Glucocorticoid Receptor (aa 524-795) with point mutations; expressed in transfected cells; host or cells: S. cerevisiae FY250
T6 sequence (P00375 1-187): T2 sequence (P00375 1-187)
T6 sequence (P06536 524-795 F620S/C656G limits assumed): T1 sequence (P06536 524-795 F620S/C656G limits assumed)
From the text: as §1, §2

[6] = target: T7, LexA (GSG)2rGR2 / B42 (GSG)2eDHFR (UniProt P06536+P0ABQ4, C656G/F620S); experiment: β-galactosidase activity assay, strain V510Y
T7 construct: rat Glucocorticoid Receptor (aa 524-795) with point mutations; expressed in transfected cells; host or cells: S. cerevisiae FY250
T7 sequence (P06536 524-795 F620S/C656G limits assumed): T1 sequence (P06536 524-795 F620S/C656G limits assumed)
T7 sequence (P0ABQ4 1-159): T1 sequence (P0ABQ4 1-159)
From the text: as §1, §2

LexA eDHFR / B42 rGR2 = target: T8, LexA eDHFR / B42 rGR2 (UniProt P06536+P0ABQ4, C656G/F620S); experiment: β-galactosidase activity assay, strain V493Y
T8 construct: rat Glucocorticoid Receptor (aa 524-795) with point mutations; expressed in transfected cells; host or cells: S. cerevisiae FY250
T8 sequence (P0ABQ4 1-159): T1 sequence (P0ABQ4 1-159)
T8 sequence (P06536 524-795 F620S/C656G limits assumed): T1 sequence (P06536 524-795 F620S/C656G limits assumed)
From the text: as §1, §2

[7] = target: T9, LexA eDHFR / B42 (GSG)rGR2 (UniProt P06536+P0ABQ4, C656G/F620S); experiment: β-galactosidase activity assay, strain V494Y
T9 construct: rat Glucocorticoid Receptor (aa 524-795) with point mutations; expressed in transfected cells; host or cells: S. cerevisiae FY250
T9 sequence (P0ABQ4 1-159): T1 sequence (P0ABQ4 1-159)
T9 sequence (P06536 524-795 F620S/C656G limits assumed): T1 sequence (P06536 524-795 F620S/C656G limits assumed)
From the text: as §1, §2

[8] = target: T10, LexA rGR2 / B42 (GSG)2eDHFR (UniProt P06536+P0ABQ4, C656G/F620S); experiment: β-galactosidase activity assay, strain V509Y
T10 construct: expressed in transfected cells; host or cells: S. cerevisiae FY250 with pMW106 lacZ reporter
T10 sequence (P06536 524-795 F620S/C656G limits assumed): T1 sequence (P06536 524-795 F620S/C656G limits assumed)
T10 sequence (P0ABQ4 1-159): T1 sequence (P0ABQ4 1-159)
From the text: as §1, §2

C[C@@H]1C[C@H]2C3CCC4=CC(=O)C=C[C@]4(C)[C@@]3(F)[C@@H](O)C[C@]2(C)[C@@]1(O)C(=O)NCCSCc1cccc(CSCC[C@H](NC(=O)c2ccc(N(C)Cc3cnc4nc(N)nc(N)c4n3)cc2)C(=O)O)c1 (stereo partly shown) [DM1]
B-gal activity [1]: 4735 β-galactosidase units
B-gal activity [2]: −8 β-galactosidase units
B-gal activity [3]: 4368 β-galactosidase units
B-gal activity [4]: −1 β-galactosidase units
B-gal activity (LexA mDHFR / B42 rGR2): 15 β-galactosidase units
B-gal activity [5]: −30 β-galactosidase units
B-gal activity [6]: 601 β-galactosidase units
B-gal activity (LexA eDHFR / B42 rGR2): 5753 β-galactosidase units
B-gal activity [7]: 9976 β-galactosidase units
B-gal activity [8]: 307 β-galactosidase units
